For test [1], the target named is T1, PLK1 kinase domain (Homo sapiens, UniProt P53350).
T1 construct: made in house; host or cells: baculovirus-infected T. ni insect cells
Nature of the test: Assay for Inhibition of PLK1 (SPA enzyme activity). The format is biochemical. The settings on record: 2 μM ATP, read-out: Ave pIC50 PLK Enzyme Inhibition (converted).

The subject of test [2] is lung (H460) tumor cell line. Nature of the test: Methylene Blue Growth Inhibition Assay, H460. The format is cell-based. The settings on record: Homo sapiens, NCI-H460, 72 h; Cell Line H460, 3 days; read-out: MeB IC50. A digest of the protocol: (§1)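 3-day compound exposure, 0.3% DMSO, 37° C/10% CO2; DMEM + 10% FBS. Seeding: HFF 5,000, RKO 2,500, H460 2,000 cells/well. Readout methylene blue stain, solubilized in N-lauroyl sarcosine, OD 620 nm. IC50 vs vehicle, Levenberg-Marquardt fit.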

The subject of test [3] is colon (HCT116) tumor cell line. The test can be described thus: Methylene Blue Growth Inhibition Assay, HCT116. The format is cell-based. The settings on record: Homo sapiens, HCT-116, 72 h; Cell Line HCT116, 3 days; read-out: MeB IC50. A digest of the protocol: (§2)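 Methylene blue dye retained by cells after a 3-day, 37° C compound incubation in DMEM/10% FBS (0.3% DMSO) served as the biomass readout at 620 nm. IC50 values were interpolated by nonlinear regression against vehicle wells.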

For test [4], the system named is Normal Human foreskin fibroblasts (HFF). The test can be described thus: Methylene Blue Growth Inhibition Assay, HFF. The format is cell-based. The settings on record: 72 h, Cell Line HFF, 3 days, read-out: MeB IC50. A digest of the protocol: as §1
Test [5] concerns breast tumor (MCF7) cell line. Nature of the test: Methylene Blue Growth Inhibition Assay, MCF7. To be noted: Homo sapiens, 72 h; Cell Line MCF7, 3 days; read-out: MeB IC50. The format is cell-based. In short, it runs like this: as §2
Test [6] deals with prostate (PC3) tumor cell line. The test can be described thus: Methylene Blue Growth Inhibition Assay, PC3. The format is cell-based. The settings on record: Homo sapiens, 72 h; Cell Line PC3, 3 days; read-out: MeB IC50. In short, it runs like this:
as §2

Test [7] concerns colon (RKO) tumor cell line. Nature of the test: Methylene Blue Growth Inhibition Assay, RKO. The format is cell-based. To be noted: Homo sapiens, 72 h, 3 days, read-out: MeB IC50. A digest of the protocol:
as §1

The subject of test [8] is A549. The test can be described thus: Methylene Blue Growth Inhibition Assay, A549. The format is cell-based. The settings on record: Homo sapiens; Cell Line A549; read-out: MeB IC50.

As a reminder, the pIC50 is the IC50 on a negative log10 scale, so that one unit is a factor of ten.

Molecules are shown by their SMILES. pIC50: −log10 of the molar value. Bounds are passed on as bounds.

T1 sequence (P53350 21-346): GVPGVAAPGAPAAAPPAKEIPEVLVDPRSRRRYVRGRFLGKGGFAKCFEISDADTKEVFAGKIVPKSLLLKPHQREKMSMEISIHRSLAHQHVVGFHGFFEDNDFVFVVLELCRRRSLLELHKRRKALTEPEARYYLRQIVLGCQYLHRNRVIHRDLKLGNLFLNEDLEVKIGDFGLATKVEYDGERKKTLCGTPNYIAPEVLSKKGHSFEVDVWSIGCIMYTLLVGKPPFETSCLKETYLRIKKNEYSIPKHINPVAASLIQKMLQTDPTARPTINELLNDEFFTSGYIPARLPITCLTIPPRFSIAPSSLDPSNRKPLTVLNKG

As to `COc1cc2ncn(-c3cc(OCc4cccnc4Cl)c(C(N)=O)s3)c2cc1OC` [Example 101, 3-[(2-Chloropyridin-3-yl)methoxy]-5-(5,6-dimethoxy-1H-benzimidazol-1-yl)thiophene-2-carboxamide], the IC50 in test [1] is less than 0.1 µM. In addition, the pIC50 in test [2] is 5.00 to 6.00; in test [3] it was 5.00 to 6.00; in test [4], less than 5.00; in test [5] it was 5.00 to 6.00; in test [6], 5.00 to 6.00; in test [7], more than 6.00. For the same compound, the pIC50 in test [8] was 5.00 to 6.00.

`COc1cc2ncn(-c3cc(OCc4ccncc4Br)c(C(N)=O)s3)c2cc1OC` [Example 120, 3-[(3-Bromopyridin-4-yl)methoxy]-5-(5,6-dimethoxy-1H-benzimidazol-1-yl)thiophene-2-carboxamide]: the IC50 in test [1] is less than 0.1 µM. Moreover, the pIC50 is 5.00 to 6.00 in test [2]; 5.00 to 6.00 in test [3]; less than 5.00 in test [4]; 5.00 to 6.00 in test [5]; less than 5.00 in test [6]; more than 6.00 in test [7]. The pIC50 in test [8] was 5.00 to 6.00.

Take `COc1cc2ncn(-c3cc(OCc4ccccc4OC(F)F)c(C(N)=O)s3)c2cc1OC` [Example 108, 3-{[2-(Difluoromethoxy)benzyl]oxy}-5-(5,6-dimethoxy-1H-benzimidazol-1-yl)thiophene-2-carboxamide]: the IC50 in test [1] is less than 0.1 µM. Moreover, the pIC50 is more than 6.00 in test [2]; more than 6.00 in test [3]; less than 5.00 in test [4]; more than 6.00 in test [5]; less than 5.00 in test [6]; more than 6.00 in test [7]. In addition, the pIC50 in test [8] is more than 6.00.

Consider `CS(=O)(=O)c1ccc2ncn(-c3cc(OCc4ccccc4C(F)(F)F)c(C(N)=O)s3)c2c1` [Example 121], for which the IC50 in test [1] is less than 0.1 µM. In addition, the pIC50 in test [2] was 5.00 to 6.00; in test [3] it was 5.00 to 6.00; in test [4], less than 5.00; in test [5], 5.00 to 6.00; in test [6], less than 5.00; in test [7] it was 5.00 to 6.00. In test [8], the negative logarithm of the IC50 (pIC50) was 5.00 to 6.00.

On to `COc1cc2c(cc1OCCCN1CCCC1=O)ncn2-c1cc(OCc2ccccc2C(F)(F)F)c(C(N)=O)s1` [Example 134, 5-(6-(Methyloxy)-5-{[3-(2-oxo-1-pyrrolidinyl)propyl]oxy}-1H-benzimidazol-1-yl)-3-({[2-(trifluoromethyl)phenyl]methyl}oxy)-2-thiophenecarboxamide], for which the IC50 in test [1] is less than 0.1 µM. For the same compound, the pIC50 in test [2] was 5.00 to 6.00; in test [3], 5.00 to 6.00; in test [4], less than 5.00; in test [5], 5.00 to 6.00; in test [6] it was less than 5.00; in test [7], 5.00 to 6.00. In test [8], the pIC50 is 5.00 to 6.00.

For the compound `COc1cc2ncn(-c3cc(OC(C)c4ccccc4C(F)(F)F)c(C(N)=O)s3)c2cc1OC` (stereo not drawn) [Example 127], the IC50 in test [1] is less than 0.1 µM. The pIC50 in test [2] was more than 6.00; in test [3], more than 6.00; in test [4], 5.00 to 6.00; in test [5], more than 6.00; in test [6], 5.00 to 6.00; in test [7], more than 6.00. Also, the pIC50 in test [8] was more than 6.00.

`COc1cc2ncn(-c3cc(OCc4ccccc4OC(F)(F)F)c(C(N)=O)s3)c2cc1OC` [Example 107, 5-(5,6-Dimethoxy-1H-benzimidazol-1-yl)-3-{[2-(trifluoromethoxy)benzyl]oxy}thiophene-2-carboxamide]: in test [1], the IC50 was less than 0.1 µM. In addition, the pIC50 is more than 6.00 in test [2]; 5.00 to 6.00 in test [3]; 5.00 to 6.00 in test [4]; 5.00 to 6.00 in test [5]; 5.00 to 6.00 in test [6]; more than 6.00 in test [7]. Further, the pIC50 in test [8] is more than 6.00.

Take `COc1cc2ncn(-c3cc(OC(C)c4ccccc4Cl)c(C(N)=O)s3)c2cc1OC` (stereo not drawn) [Example 126, 3-[1-(2-Chlorophenyl)ethoxy]-5-(5,6-dimethoxy-1H-benzimidazol-1-yl)thiophene-2-carboxamide]: the pIC50 in test [2] is more than 6.00; in test [3] it was more than 6.00; in test [4] it was more than 6.00; in test [5] it was 5.00 to 6.00; in test [6], 5.00 to 6.00; in test [7] it was more than 6.00. Also, the pIC50 in test [8] is more than 6.00.

As to `O=C(O)c1sc(-n2cnc3ccc(Cl)cc32)cc1OCc1cccnc1` [Example 72, 5-(6-Chloro-1H-benzimidazol-1-yl)-3-(pyridin-3-ylmethoxy)thiophene-2-carboxylic acid], the IC50 in test [1] is less than 0.1 µM. For the same compound, the pIC50 in test [2], in test [3], in test [4], in test [5], in test [6] and in test [7] was less than 5.00 in each case.

For the compound `NC(=O)c1sc(-n2cnc3ccccc32)cc1C#Cc1ccccc1` [Example 129, 5-(1H-Benzimidazol-1-yl)-3-(phenylethynyl)thiophene-2-carboxamide], in test [1], the IC50 is 0.1 to 10 µM. In addition, the pIC50 in test [2], in test [3], in test [4], in test [5], in test [6] and in test [7] was less than 5.00 throughout.

Consider `C#Cc1ccccc1COc1cc(-n2cnc3cc(OC)c(OC)cc32)sc1C(N)=O` [Example 106, 5-(5,6-Dimethoxy-1H-benzimidazol-1-yl)-3-[(2-ethynylbenzyl)oxy]thiophene-2-carboxamide], for which the IC50 in test [1] was less than 0.1 µM. In addition, the pIC50 in test [2] is 5.00 to 6.00; in test [3], 5.00 to 6.00; in test [4] it was less than 5.00; in test [5], 5.00 to 6.00; in test [6], less than 5.00; in test [7], 5.00 to 6.00.

For `NC(=O)c1sc(-n2cnc3cc(C(=O)NCCN4CCNC4=O)ccc32)cc1OCc1ccccc1C(F)(F)F` [Example 156, 1-(5-(Aminocarbonyl)-4-{[2-(trifluoromethyl)benzyl]oxy}thien-2-yl)-N-[2-(2-oXoimidazolidin-1-yl)ethyl]-1H-benzimidazole-5-carboxamide], the IC50 in test [1] is less than 0.1 µM. Also, the pIC50 in test [2], in test [3], in test [4], in test [5], in test [6] and in test [7] was less than 5.00 in each case.

On to `COc1cc2ncn(-c3cc(OCc4ccccc4-c4ccccc4)c(C(N)=O)s3)c2cc1OC` [Example 93, 3-(1,1′-Biphenyl-2-ylmethoxy)-5-(5,6-dimethoxy-1H-benzimidazol-1-yl)thiophene-2-carboxamide], for which the IC50 in test [1] is 0.1 to 10 µM. In addition, the pIC50 in test [2], in test [3], in test [4], in test [5], in test [6] and in test [7] was less than 5.00 throughout.

Consider `O=C(O)c1sc(-n2cnc3ccc(Br)cc32)cc1OCc1ccccc1C(F)(F)F` [Example 74, 5-(6-Bromo-1H-benzimidazol-1-yl)-3-{[2-(trifluoromethyl)-benzyl]oxy}thiophene-2-carboxylic acid], for which the IC50 in test [1] was less than 0.1 µM. The pIC50 was 5.00 to 6.00 in test [2]; less than 5.00 in test [3]; less than 5.00 in test [4]; less than 5.00 in test [5]; less than 5.00 in test [6]; less than 5.00 in test [7].

Take `COc1cc2ncn(-c3cc(OCc4ccccc4C#N)c(C(N)=O)s3)c2cc1OC` [Example 95, 3-[(2-Cyanobenzyl)oxy]-5-(5,6-dimethoxy-1H-benzimidazol-1-yl)thiophene-2-carboxamide]: the IC50 in test [1] was less than 0.1 µM. The pIC50 was 5.00 to 6.00 in test [2]; 5.00 to 6.00 in test [3]; less than 5.00 in test [4]; 5.00 to 6.00 in test [5]; less than 5.00 in test [6]; 5.00 to 6.00 in test [7].

For `NC(=O)c1sc(-n2cnc3ccc(OCCN4CCCC4)cc32)cc1OCc1ccccc1C(F)(F)F` [Example 139, 5-[6-(2-Pyrrolidin-1-ylethoxy)-1H-benzimidazol-1-yl]-3-{[2-(trifluoromethyl)benzyl]oxy}thiophene-2-carboxamide], in test [1], the IC50 was less than 0.1 µM. Moreover, the pIC50 is 5.00 to 6.00 in test [2]; 5.00 to 6.00 in test [3]; less than 5.00 in test [4]; 5.00 to 6.00 in test [5]; 5.00 to 6.00 in test [6]; more than 6.00 in test [7].

On to `COc1cc2ncn(-c3cc(OCc4ccccc4C=O)c(C(N)=O)s3)c2cc1OC` [Example 110, 5-(5,6-Dimethoxy-1H-benzimidazol-1-yl)-3-[(2-formylbenzyl)oxy]thiophene-2-carboxamide], for which, in test [1], the IC50 was less than 0.1 µM. The pIC50 is 5.00 to 6.00 in test [2]; more than 6.00 in test [3]; less than 5.00 in test [4]; 5.00 to 6.00 in test [5]; 5.00 to 6.00 in test [6]; more than 6.00 in test [7].

For the origin of these results see US20080269298A1, “Benzimidazol-1-YL-thiophene compounds for the treatment of cancer” (priority 2002, published 2008).
